We go through one molecule from US20050191252A1, “Skin beautification cosmetic system using iontophoresis device, ultrasonic facial stimulator, and cosmetic additive” (priority 2004, published 2005).

Like-named read-outs stand apart in the source and are kept apart here.

The conditions of data set [1]: rat, in vivo.
Method: The present inventor introduced a 0.1% diluted solution of C-ascorbic acid (hereinafter referred to as Vitamin C) into the back skin of a rat by simple external application and iontophoresis to compare osmosis of vitamin C using a scintillation counter and autoradiography.
A 0.1% vitamin C solution was applied to the back skin of a hairless rat for 20 seconds by iontophoresis or for 10 minutes by simple external application. Tissue samples were collected at prescribed intervals (Samples of iontophoresis application: control, 0.5 h, 1 h, 2 h, 3 h, and 6 h; samples of simple external application: control, 1 h, 2 h, 3 h, and 6 h). Each collected sample was cut into two pieces, one of which was separated into epidermis and dermis for use as a scintillation counter sample. A lyophilized section was prepared from the other piece of the sample and developed for autoradiography analysis. The vitamin C concentration in each tissue was determined using IR analysis.
The nature of data set [2]: Vitamin C osmosis comparison using autoradiography (Test Example 3). The format is in vivo, hairless rat. The text has this:
Vitamin C osmosis comparison using autoradiography.
These figures (photographs) display a cross-section of rat skin tissue, wherein black dots in the epidermis and dermis indicate vitamin C.

Data set [3] is described as follows: Vitamin C osmosis into the human skin (Test Example 1), iontophoretic introduction, HPLC of epidermis and dermis. To be noted: human thigh skin, five hours after five minutes iontophoretic introduction.
Method: <Experiment Procedure> • (1) Vitamin C was iontophoretically introduced for five minutes. • (2) After five hours, 5 mm of the skin was punched, separated into epidermis and dermis, and freeze dried. • (3) The Vitamin C concentration in the epidermis and dermis was determined by HPLC. • 1) The freeze dry samples were dissolved in 500 □1 of a moving layer solvent. • 2) The solution was ultrasonically treated for 10 minutes, • 3) filtered through a 0.2 mm filter, and • 4) subjected to HPLC measurement.
Moving layer: A 0.08 M CH3COOH—CH3COONa buffer solution (pH 5.0) containing 2.8 mM Mn-hexyl amine, 0.1 mM disodium edetate, and 2% methanol. • Measuring amount: 20 □1 • Flow rate: 0.8 ml/min. • Wavelength: 254 nm • Column: ODS column oven: 40° C.

With `O=C1O[C@H]([C@@H](O)CO)C(O)=C1O` [Vitamin C, C-ascorbic acid], in data set [1] (hairless), the “osmosis by iontophoresis application relative to simple external application” value is “about 30 times” and the “time at which concentration reached maximum” value was found to be 0.5 h. Also, the “time at which concentration reached maximum” value in data set [1] was “one”. Also, the “penetration from the epidermis into the dermis (autoradiography)” value in data set [2] (iontophoresis application, rat back skin (FIG. 7)) is “started to penetrate at 0.5 hour and more abundantly after one hour”. Further, the “penetration from the epidermis into the dermis (autoradiography)” value in data set [2] (simple external application, rat back skin (FIG. 6)) is reported as “progressively penetrated from the epidermis into the dermis over time”. Moreover, in data set [3], the “Dermis (ppm), Vitamin C concentration” value was 0.05 ppm and the “Epidermis (ppm), Vitamin C concentration” value is 0.02 ppm.
